Columns and labels:
FAAH = target: T1, FAAH (Mus musculus, UniProt O08914); test: In vitro competitive activity-based protein profiling (mouse), FAAH gel band; assay type: biochemical; conditions: for IC50: mouse; for inhibition at 1 µM: read-out: FAAH % inh. 1 μM
T1 construct: Proteomes (mouse brain membrane fraction or cell lysates); from tissue; host or cells: mouse brain membrane fraction (or cell lysates)
T1 sequence (O08914 1-579): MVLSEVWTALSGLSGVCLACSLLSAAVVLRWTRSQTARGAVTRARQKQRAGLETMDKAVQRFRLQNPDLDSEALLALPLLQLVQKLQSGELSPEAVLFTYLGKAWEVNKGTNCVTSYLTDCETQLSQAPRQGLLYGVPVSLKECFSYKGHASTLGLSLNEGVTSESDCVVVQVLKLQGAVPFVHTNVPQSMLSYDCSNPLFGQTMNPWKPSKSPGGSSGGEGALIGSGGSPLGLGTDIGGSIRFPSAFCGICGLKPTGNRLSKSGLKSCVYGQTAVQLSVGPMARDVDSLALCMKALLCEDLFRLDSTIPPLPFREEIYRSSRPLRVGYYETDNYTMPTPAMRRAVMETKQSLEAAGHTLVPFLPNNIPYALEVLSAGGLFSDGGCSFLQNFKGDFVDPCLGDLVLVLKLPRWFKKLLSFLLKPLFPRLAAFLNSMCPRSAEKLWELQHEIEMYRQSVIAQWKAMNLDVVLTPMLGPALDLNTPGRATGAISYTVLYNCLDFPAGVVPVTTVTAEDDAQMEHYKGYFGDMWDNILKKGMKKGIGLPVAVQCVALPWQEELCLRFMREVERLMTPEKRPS
Method in brief: (§1)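 Gel-based competitive ABPP: proteome 1.0 mg/mL, inhibitor 30 min 37 °C, then FP-Rh or HT-01 probe (stock 50 μM) 30 min 37 °C; SDS quench, SDS-PAGE, in-gel fluorescence of the enzyme band quantified.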

MAGL [1] = target: T2, MAGL (Mus musculus, UniProt O35678); test: Mouse brain proteomes from inhibitor treated mice (oral gavage, sacrificed 4 h after administration); assay type: in vivo; conditions: read-out: MAGL % inh. 5 mg/kg
T2 construct: Proteomes (mouse brain membrane fraction or cell lysates); from tissue; host or cells: mouse brain membrane fraction (or cell lysates)
T2 sequence (O35678 1-303): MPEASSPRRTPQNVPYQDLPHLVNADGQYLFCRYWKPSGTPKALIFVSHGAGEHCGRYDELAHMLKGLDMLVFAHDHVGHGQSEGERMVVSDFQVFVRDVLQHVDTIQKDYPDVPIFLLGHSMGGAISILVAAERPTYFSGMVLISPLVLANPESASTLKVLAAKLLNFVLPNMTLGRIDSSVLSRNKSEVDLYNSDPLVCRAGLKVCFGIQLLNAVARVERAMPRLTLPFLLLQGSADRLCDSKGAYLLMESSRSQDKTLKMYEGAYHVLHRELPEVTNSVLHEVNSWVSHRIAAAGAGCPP
Experimental: Compounds are tested to assess their MAGL and other serine hydrolase activity using the following in vitro and in vivo assays.
Preparation of Mouse Brain Proteomes from Inhibitor Treated Mice.
Inhibitors were administered to wild-type C57Bl/6J by oral gavage in a vehicle of polyethylene glycol. Each animal was sacrificed 4 h following administration and brain proteomes were prepared and analyzed according to previously established methods (See Niphakis, M. J., et al. (2011) ACS Chem. Neurosci. and Long, J. Z., et al. Nat. Chem. Biol. 5:37-44)

MAGL [2] = target: T2, MAGL; test: In vitro competitive activity-based protein profiling (mouse), MAGL gel band; assay type: biochemical; conditions: for IC50: mouse; for inhibition at 1 µM: read-out: MAGL % inh. 1 μM
Method in brief: as §1

SMILES | IC50 (FAAH) [nM] | inhibition at 1 µM (FAAH) [%] | inhibition at 5 mg/kg (MAGL [1]) [%] | IC50 (MAGL [2]) [nM] | inhibition at 1 µM (MAGL [2]) [%]
CC(=O)Nc1ccn(C(=O)N2CCN(Cc3cc(Oc4cncnc4)cc(C(F)(F)F)c3)CC2)n1 [Example 74, N-(1-(4-(3-(pyrimidin-5-yloxy)-5-(trifluoromethyl)benzyl)piperazine-1-carbonyl)-1H-pyrazol-3-yl)acetamide] | 1000 to 10000 | 0 to 25 | 25 to 50 | ≤ 100 | ≥ 75
CC(=O)Nc1ccn(C(=O)N2CCN(Cc3ccc(C(F)(F)F)cc3N3CCN(C4CC4)CC3)CC2)n1 [Example 47, N-(1-(4-(2-(4-cyclopropylpiperazin-1-yl)-4-(trifluoromethyl)benzyl)piperazine-1-carbonyl)-1H-pyrazol-3-yl)acetamide] | 1000 to 10000 | 0 to 25 | 25 to 50 | ≤ 100 | ≥ 75
CC(=O)Nc1ccn(C(=O)N2CCN(Cc3cccc(C(F)(F)F)c3-c3nnn[nH]3)CC2)n1 [Example 223, N-(1-(4-(2-(1H-tetrazol-5-yl)-3-(trifluoromethyl)benzyl)piperazine-1-carbonyl)-1H-pyrazol-3-yl)acetamide] | 1000 to 10000 | 0 to 25 | 0 to 25 | 1000 to 10000 | ≥ 75
CCN1CCN(c2cc(C(F)(F)F)ccc2CN2CCN(C(=O)n3ccc(NC(C)=O)n3)CC2)CC1 [Example 48, N-(1-(4-(2-(4-ethylpiperazin-1-yl)-4-(trifluoromethyl)benzyl)piperazine-1-carbonyl)-1H-pyrazol-3-yl)acetamide] | 1000 to 10000 | 0 to 25 | 0 to 25 | ≤ 100 | ≥ 75
CC(=O)Nc1ccn(C(=O)N2CCC3(CCCN3Cc3ccc(Cl)cc3N3CCC(F)CC3)CC2)n1 [Example 18, N-(1-(1-(4-chloro-2-(4-fluoropiperidin-1-yl)benzyl)-1,8-diazaspiro[4.5]decane-8-carbonyl)-1H-pyrazol-3-yl)acetamide] | 1000 to 10000 | 0 to 25 | 0 to 25 | ≤ 100 | ≥ 75
CC(=O)Nc1ccn(C(=O)N2CCC3(CCCN3Cc3ccc(C(F)(F)F)cc3N3CC4CCC(C3)O4)CC2)n1 [Example 20, N-(1-(1-(2-(8-oxa-3-azabicyclo[3.2.1]octan-3-yl)-4-(trifluoromethyl)benzyl)-1,8-diazaspiro[4.5]decane-8-carbonyl)-1H-pyrazol-3-yl)acetamide] | 1000 to 10000 | 0 to 25 | 0 to 25 | ≤ 100 | ≥ 75
CC(=O)Nc1ccn(C(=O)N2CCC3(CCCN3Cc3ccc(C(F)(F)F)c(C(N)=O)c3)CC2)n1 [Example 107, 5-((8-(3-acetamido-1H-pyrazole-1-carbonyl)-1,8-diazaspiro[4.5]decan-1-yl)methyl)-2-(trifluoromethyl)benzamide] | 1000 to 10000 | 0 to 25 | 0 to 25 | 100 to 1000 | ≥ 75
CC(=O)Nc1ccn(C(=O)N2CCN(Cc3ccc(Cl)cc3N3CCCC3)CC2)n1 [Example 5, N-(1-(4-(4-chloro-2-(pyrrolidin-1-yl)benzyl)piperazine-1-carbonyl)-1H-pyrazol-3-yl)acetamide] | 1000 to 10000 | 0 to 25 | ≥ 75 | ≤ 100 | ≥ 75
CC(=O)Nc1ccn(C(=O)N2CCN(Cc3ccc(Cl)cc3N3CC4CCC(C3)O4)CC2)n1 [Example 51, N-(1-(4-(2-(8-oxa-3-azabicyclo[3.2.1]octan-3-yl)-4-chlorobenzyl)piperazine-1-carbonyl)-1H-pyrazol-3-yl)acetamide] | 1000 to 10000 | 0 to 25 | 25 to 50 | ≤ 100 | ≥ 75
